Data as given in the supplement of paper PMC10307832.

Experiments:
Assay in all cases: relative viability (nuclei count vs DMSO), 5 days (fraction); higher = more cells survive
PAC-1 + Palbociclib = compound: C=CCc1cccc(/C=N/NC(=O)CN2CCN(Cc3ccccc3)CC2)c1O [PAC-1] + CC(=O)c1c(C)c2cnc(Nc3ccc(N4CCNCC4)cn3)nc2n(C2CCCC2)c1=O [Palbociclib] (partner 0.5 µM)
Outline: (§1)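 Lung cancer cell lines were seeded in 1536-well plates and dosed by pin tool the next day, with either a single drug or a fixed anchor-drug dose combined with five library-drug doses (not always all listed) spaced in √10 steps. Five days later, one step fixed the cells and stained their nuclei (final 0.05% Triton X-100, 1% formaldehyde, 1 ug/ml Hoechst), and nuclei were counted on 4× images. Relative viability is the nuclei count in treated wells divided by the count in vehicle wells, and each value is the median of duplicate plates.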

PAC-1 + Luminespib = compound: C=CCc1cccc(/C=N/NC(=O)CN2CCN(Cc3ccccc3)CC2)c1O [PAC-1] + CCNC(=O)c1noc(-c2cc(C(C)C)c(O)cc2O)c1-c1ccc(CN2CCOCC2)cc1 [Luminespib] (partner 0.01 µM)
Outline: as §1

BMX-IN-1 + Navitoclax = compound: C=CC(=O)Nc1cc(-n2c(=O)ccc3cnc4ccc(-c5ccc(NS(C)(=O)=O)cc5)cc4c32)ccc1C [BMX-IN-1] + CC1(C)CCC(c2ccc(Cl)cc2)=C(CN2CCN(c3ccc(C(=O)NS(=O)(=O)c4ccc(N[C@H](CCN5CCOCC5)CSc5ccccc5)c(S(=O)(=O)C(F)(F)F)c4)cc3)CC2)C1 [Navitoclax] (partner 0.5 µM)
Outline: as §1

PAC-1 + Lapatinib = compound: C=CCc1cccc(/C=N/NC(=O)CN2CCN(Cc3ccccc3)CC2)c1O [PAC-1] + CS(=O)(=O)CCNCc1ccc(-c2ccc3ncnc(Nc4ccc(OCc5cccc(F)c5)c(Cl)c4)c3c2)o1 [Lapatinib] (partner 2 µM)
Outline: as §1

BMX-IN-1 + AZD7762 = compound: C=CC(=O)Nc1cc(-n2c(=O)ccc3cnc4ccc(-c5ccc(NS(C)(=O)=O)cc5)cc4c32)ccc1C [BMX-IN-1] + NC(=O)Nc1cc(-c2cccc(F)c2)sc1C(=O)N[C@H]1CCCNC1 [AZD7762] (partner 0.2 µM)
Outline: as §1

Cell Line | relative viability (PAC-1 + Palbociclib; first compound 0.02 µM) | relative viability (PAC-1 + Palbociclib; first compound 0.06325 µM) | relative viability (PAC-1 + Palbociclib; first compound 0.2 µM) | relative viability (PAC-1 + Palbociclib; first compound 2 µM) | relative viability (PAC-1 + Luminespib; first compound 0.02 µM) | relative viability (PAC-1 + Luminespib; first compound 0.06325 µM) | relative viability (PAC-1 + Luminespib; first compound 0.2 µM) | relative viability (PAC-1 + Luminespib; first compound 2 µM) | relative viability (BMX-IN-1 + Navitoclax; first compound 0.02 µM) | relative viability (BMX-IN-1 + Navitoclax; first compound 0.2 µM) | relative viability (BMX-IN-1 + Navitoclax; first compound 0.6325 µM) | relative viability (BMX-IN-1 + Navitoclax; first compound 2 µM) | relative viability (PAC-1 + Lapatinib; first compound 0.02 µM) | relative viability (PAC-1 + Lapatinib; first compound 0.06325 µM) | relative viability (PAC-1 + Lapatinib; first compound 0.2 µM) | relative viability (PAC-1 + Lapatinib; first compound 2 µM) | relative viability (BMX-IN-1 + AZD7762; first compound 0.02 µM) | relative viability (BMX-IN-1 + AZD7762; first compound 0.2 µM) | relative viability (BMX-IN-1 + AZD7762; first compound 0.6325 µM) | relative viability (BMX-IN-1 + AZD7762; first compound 2 µM)
NCI-H1793 | 0.307 | 0.324 | 0.271 | 0.302 | 0.207 | 0.216 | 0.164 | 0.17 | 0.454 | 0.363 | 0.483 | 0.38 | 0.48 | 0.753 | 0.62 | 0.652 | 0.513 | 0.661 | 0.594 | 0.588
NCI-H1915 | 0.502 | 0.535 | 0.49 | 0.518 | 0.792 | 0.845 | 0.68 | 0.779 | 0.808 | 0.793 | 0.764 | 0.777 | 0.971 | 0.995 | 0.917 | 0.92 | 0.774 | 0.786 | 0.806 | 0.675
NCI-H1944 | 0.272 | 0.347 | 0.374 | 0.371 | 0.766 | 0.685 | 0.765 | 0.701 | 0.992 | 1.11 | 1.02 | 1.08 | 0.754 | 0.798 | 0.768 | 0.867 | 0.479 | 0.661 | 0.52 | 0.578
NCI-H1975 | 0.629 | 0.605 | 0.52 | 0.725 | 0.242 | 0.188 | 0.253 | 0.167 | 1.34 | 1.19 | 1.34 | 1 | 0.866 | 0.871 | 0.939 | 0.97 | 0.797 | 0.742 | 0.895 | 0.673
NCI-H1993 | 0.647 | 0.656 | 0.757 | 0.646 | 0.951 | 0.861 | 0.399 | 0.789 | 1.07 | 0.875 |  | 0.958 | 0.774 | 0.835 | 0.838 | 0.887 | 0.907 | 0.926 | 0.706 | 0.724
NCI-H2085 | 0.487 | 0.462 | 0.428 | 0.504 | 0.42 | 0.496 | 0.43 | 0.484 | 1.23 | 1.31 | 1.2 | 1.07 | 0.756 | 0.728 | 0.707 | 0.909 | 1.08 | 1.07 | 0.986 | 0.996
NCI-H2087 | 0.241 | 0.241 | 0.285 | 0.214 | 0.174 | 0.243 | 0.21 | 0.182 | 1.03 | 1.18 | 1.01 | 1.08 | 1.07 | 1.06 | 0.815 | 0.922 | 1.67 | 1.44 | 1.3 | 1.42
NCI-H2126 | 0.335 | 0.369 | 0.38 | 0.341 | 0.989 | 0.889 | 0.93 | 0.948 | 0.836 | 0.945 | 0.876 | 0.907 | 0.745 | 0.763 | 0.817 | 0.816 | 1.03 | 1.06 | 1.16 | 1.04
